From patent US12600728B2, “Interleukin-17 inhibitors” (priority 2020, dated 2026) come the findings set out here.

The structures appear in SMILES notation. Read-outs that look alike come from different tables or passages of the source.

For assay [1], the target named is recombinant human IL-17AA (Homo sapiens, UniProt Q16552). As to the kind of experiment: IL-6 release from NHDF cells, IL-17AA plus TNF-α stimulation. It counts as cell-based. The conditions noted are these: 24 hours, IL-6 by ELISA. On the procedure:
IL-6 Release from NHDF Cells (Normal Human Dermal Fibroblasts)
NHDF cells isolated from normal adult mesoderm, connective tissues were cultured in fibroblast growth medium containing 2% supplement. […] The cells were allowed to adhere overnight before they were incubated with the compound/cytokine cocktail.
Diluted compounds were pre-incubated with recombinant human IL-17AA or IL-17AF plus human TNF-α for 30 minutes at room temperature on a shaker. […] The cells were incubated with the compound/cytokines cocktail for 24 hours at 37° C. (5% CO2). […] The final DMSO or plasma concentrations were 0.1% or 20%, respectively. All compound incubations were done in duplicate. The supernatants were collected to quantify IL-6 by ELISA according to the manufacturers instructions. The optical density was measured at 450 nm by an EnVision Multilabel Plate Reader (Perkin Elmer). The IL-6 levels produced after TNF-α stimulation were subtracted from the IL-6 produced after IL-17/TNF-α co-stimulation. These IL-17-specific IL-6 concentrations were used for […] value calculation.

In assay [2] the target is biotinylated human IL-17A / AF647-labeled human IL-17RA (Homo sapiens, UniProt Q16552). Nature of the assay: Human IL-17A×IL-17RA TR-FRET assay. It counts as binding. In a few lines:
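Compounds tested in duplicate at each concentration; neutral controls contain all components with DMSO in place of compound.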
(TR-FRET usually uses a lanthanide donor and a delayed reading to cut background.)

Where [3] appears, read: NHDF cells, IL-17AA 30 pM plus TNF-α 6 pM, read-out: IL17AA + TNF IC50 IL-6.
[4] abbreviates: TR-FRET, biotinylated human IL-17A 5 nM, AF647-labeled human IL-17RA 30 nM, read-out: IL17AA FRET/ IL17Rawt IC50.
The mark [5] stands for this setting: IL17AA + TNF IC50 IL-6, NHDF cells, IL-17AA 30 pM plus TNF-α 6 pM.
Where [6] appears, read: IL17AA FRET/ IL17Rawt IC50, TR-FRET, biotinylated human IL-17A 5 nM, AF647-labeled human IL-17RA 30 nM.

Chain of biotinylated human IL-17A / AF647-labeled human IL-17RA (Q16552 24-155): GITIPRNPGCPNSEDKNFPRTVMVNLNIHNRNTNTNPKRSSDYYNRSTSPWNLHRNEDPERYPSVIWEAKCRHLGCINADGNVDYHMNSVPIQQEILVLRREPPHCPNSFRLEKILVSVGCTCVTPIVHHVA
Chain of recombinant human IL-17AA (Q16552 24-155): as above

Consider `CCn1nccc1C(=O)NC(C(=O)Nc1ccc(-c2c(Cl)cc[n+]([O-])c2C)cc1)C1CC2CC2C1` (single isomer, unassigned) [Example 209], for which the IC50 is 175 nM in assay [1] (NHDF cells, IL-17AA 30 pM + TNF-α 6 pM, read-out: IL17AA + TNF IC50 IL-6) and 381 nM in assay [2] (TR-FRET, 5 nM IL-17A, 30 nM IL-17RA, read-out: IL17AA FRET/ IL17Rawt IC50).

Take `Cc1cc[n+]([O-])c(C)c1-c1ccc(NC(=O)[C@@H](NC(=O)c2ccnn2C)[C@H]2CCCc3ccccc32)cc1` [Example 1, 2,4-dimethyl-3-(4-((S)-2-(1-methyl-1H-pyrazole-5-carboxamido)-2-((S)-1,2,3,4-tetrahydronaphthalen-1-yl)acetamido)phenyl)pyridine 1-oxide]: the IC50 in assay [1] (setting [3]) was 4 nM; in assay [2] (setting [4]), 8 nM.

Take `Cc1c(-c2ccc(NC(=O)[C@@H](NC(=O)c3ccnn3C)C3CCCCC3)cc2F)c(Cl)cc[n+]1[O-]` [Example 2, 4-chloro-3-(4-((S)-2-cyclohexyl-2-(1-methyl-1H-pyrazole-5-carboxamido)acetamido)-2-fluorophenyl)-2-methylpyridine 1-oxide]: the values for the IC50 in assay [1] (setting [3]) and in assay [2] (setting [4]) were 15 nM and 24 nM, respectively.

Consider `Cc1cc[n+]([O-])c(C)c1-c1ccc(NC(=O)C(NC(=O)c2ccnn2C)C2CCC(C)CC2)cc1` [Example 3, 2,4-dimethyl-3-(4-((S)-2-(1-methyl-1H-pyrazole-5-carboxamido)-2-((1r,4S)-4-methylcyclohexyl)acetamido)phenyl)pyridine 1-oxide], for which the results for the IC50 in assay [1] (setting [3]) and in assay [2] (setting [4]) were 7 nM and 24 nM, respectively.

`CCc1nocc1C(=O)NC(C(=O)Nc1ccc(-c2c(Cl)cc[n+]([O-])c2C)cc1)C1CCC(C(F)(F)F)CC1` [Example 4, 4-chloro-3-(4-((S)-2-(3-ethylisoxazole-4-carboxamido)-2-((1r,4S)-4-(trifluoromethyl)cyclohexyl)acetamido)phenyl)-2-methylpyridine 1-oxide]: the IC50 in assay [1] (setting [3]) was 12 nM; in assay [2] (setting [4]), 26 nM.

Take `CCn1nccc1C(=O)NC(C(=O)Nc1ccc(-c2c(C)cc[n+]([O-])c2C)cc1)C1CCC(C(F)(F)F)CC1` [Example 7, 3-(4-((S)-2-(1-ethyl-1H-pyrazole-5-carboxamido)-2-((1r,4S)-4-(trifluoromethyl)cyclohexyl)acetamido)phenyl)-2,4-dimethylpyridine 1-oxide]: the values for the IC50 in assay [1] (setting [5]) and in assay [2] (setting [6]) were 26 nM and 46 nM, respectively.

Regarding `CCc1nocc1C(=O)NC(C(=O)Nc1ccc(-c2c(C)cc[n+]([O-])c2C)cc1)C1CCC(C(F)(F)F)CC1` [Example 8, 3-(4-((S)-2-(3-ethylisoxazole-4-carboxamido)-2-((1r,4S)-4-(trifluoromethyl)cyclohexyl)acetamido)phenyl)-2,4-dimethylpyridine 1-oxide], the values for the IC50 in assay [1] (setting [3]) and in assay [2] (setting [4]) were 4 nM and 41 nM, respectively.

Take `Cc1nocc1C(=O)N[C@H](C(=O)Nc1ccc(-c2c(C(F)(F)F)cc[n+]([O-])c2C)cc1)[C@H]1CCCC(F)(F)C1` [Example 9, 3-(4-((S)-2-((S)-3,3-difluorocyclohexyl)-2-(3-methylisoxazole-4-carboxamido)acetamido)phenyl)-2-methyl-4-(trifluoromethyl)pyridine 1-oxide]: the IC50 is 4 nM in assay [1] (setting [3]) and 60 nM in assay [2] (setting [4]).

On to `CCn1nccc1C(=O)N[C@H](C(=O)Nc1ccc(-c2c(C(F)(F)F)cc[n+]([O-])c2C)cc1)[C@H]1CCCC(F)(F)C1` [Example 10, 3-(4-((S)-2-((S)-3,3-difluorocyclohexyl)-2-(1-ethyl-1H-pyrazole-5-carboxamido)acetamido)phenyl)-2-methyl-4-(trifluoromethyl)pyridine 1-oxide], for which the IC50 amounted to 11 nM in assay [1] (setting [3]) and 93 nM in assay [2] (setting [4]).

With `CCn1nccc1C(=O)N[C@H](C(=O)Nc1ccc(-c2c(C(F)(F)F)cc[n+]([O-])c2C)cc1)C1CCC(F)(F)CC1` [Example 11, (S)-3-(4-(2-(4,4-difluorocyclohexyl)-2-(1-ethyl-1H-pyrazole-5-carboxamido)acetamido)phenyl)-2-methyl-4-(trifluoromethyl)pyridine 1-oxide], the IC50 in assay [1] (setting [3]) turned out to be 20 nM; in assay [2] (setting [4]), 82 nM.

As for `Cc1nocc1C(=O)N[C@H](C(=O)Nc1ccc(-c2c(Cl)cc[n+]([O-])c2C)c(F)c1)C1CCCCC1` [Example 14, 4-chloro-3-(4-((S)-2-cyclohexyl-2-(3-methylisoxazole-4-carboxamido)acetamido)-2-fluorophenyl)-2-methylpyridine 1-oxide], the IC50 in assay [1] (setting [3]) came to 9 nM; in assay [2] (setting [4]), 24 nM.

As for `COCCn1nccc1C(=O)N[C@H](C(=O)Nc1ccc(-c2c(Cl)cc[n+]([O-])c2C)c(F)c1)C1CCCCC1` [Example 15, 4-chloro-3-(4-((S)-2-cyclohexyl-2-(1-(2-methoxyethyl)-1H-pyrazole-5-carboxamido)acetamido)-2-fluorophenyl)-2-methylpyridine 1-oxide], the figures for the IC50 in assay [1] (setting [3]) and in assay [2] (setting [4]) were 10 nM and 52 nM, respectively.

Turning to `Cc1nscc1C(=O)N[C@H](C(=O)Nc1ccc(-c2c(Cl)cc[n+]([O-])c2C)c(F)c1)C1CCCCC1` [Example 17, 4-chloro-3-(4-((S)-2-cyclohexyl-2-(3-methylisothiazole-4-carboxamido)acetamido)-2-fluorophenyl)-2-methylpyridine 1-oxide], the IC50 in assay [1] (setting [3]) is 18 nM; in assay [2] (setting [4]) it was 118 nM.

Take `Cc1c(-c2ccc(NC(=O)C(NC(=O)c3ccnn3C)C3CCC(C(F)(F)F)CC3)cc2)c(Cl)cc[n+]1[O-]` [Example 18, 4-chloro-2-methyl-3-(4-((S)-2-(1-methyl-1H-pyrazole-5-carboxamido)-2-((1r,4S)-4-(trifluoromethyl)cyclohexyl)acetamido)phenyl)pyridine 1-oxide]: the IC50 was determined as 28 nM in assay [1] (setting [3]) and 25 nM in assay [2] (setting [4]).

Regarding `Cc1nocc1C(=O)NC(C(=O)Nc1ccc(-c2c(Cl)cc[n+]([O-])c2C)cc1)C1CCC(C(F)(F)F)CC1` [Example 19, 4-chloro-2-methyl-3-(4-((S)-2-(3-methylisoxazole-4-carboxamido)-2-((1r,4S)-4-(trifluoromethyl)cyclohexyl)acetamido)phenyl)pyridine 1-oxide], the IC50 in assay [1] (setting [3]) was determined as 20 nM; in assay [2] (setting [4]), 26 nM.

Consider `CCn1nccc1C(=O)N[C@H](C(=O)Nc1ccc(-c2c(C(F)(F)F)cc[n+]([O-])c2C)cc1)C1CCCC1` [Example 21, (S)-3-(4-(2-cyclopentyl-2-(1-ethyl-1H-pyrazole-5-carboxamido)acetamido)phenyl)-2-methyl-4-(trifluoromethyl)pyridine 1-oxide], for which the results for the IC50 in assay [1] (setting [3]) and in assay [2] (setting [4]) were 31 nM and 39 nM, respectively.

As to `Cc1nocc1C(=O)N[C@H](C(=O)Nc1ccc(-c2c(C(F)(F)F)cc[n+]([O-])c2C)cc1)C1CCCC1` [Example 22, (S)-3-(4-(2-cyclopentyl-2-(3-methylisoxazole-4-carboxamido)acetamido)phenyl)-2-methyl-4-(trifluoromethyl)pyridine 1-oxide], the IC50 in assay [1] (setting [3]) is 66 nM; in assay [2] (setting [4]), 59 nM.

With `Cc1cc[n+]([O-])c(C)c1-c1ccc(NC(=O)C(NC(=O)c2conc2C)C2CCC(C(F)(F)F)CC2)cc1` [Example 23, 2,4-dimethyl-3-(4-((S)-2-(3-methylisoxazole-4-carboxamido)-2-((1r,4S)-4-(trifluoromethyl)cyclohexyl)acetamido)phenyl)pyridine 1-oxide], the IC50 in assay [1] (setting [3]) turned out to be 6 nM; in assay [2] (setting [4]), 60 nM.

On to `Cc1cc[n+]([O-])c(C)c1-c1ccc(NC(=O)C(NC(=O)c2ccnn2C)C2CCC(C(F)(F)F)CC2)cc1` [Example 24, 2,4-dimethyl-3-(4-((S)-2-(1-methyl-1H-pyrazole-5-carboxamido)-2-((1r,4S)-4-(trifluoromethyl)cyclohexyl)acetamido)phenyl)pyridine 1-oxide], for which the IC50 came to 48 nM in assay [1] (setting [5]) and 114 nM in assay [2] (setting [6]).

Consider `COCc1nocc1C(=O)NC(C(=O)Nc1ccc(-c2c(C)cc[n+]([O-])c2C)cc1)C1CCC(C(F)(F)F)CC1` [Example 25, 3-(4-((S)-2-(3-(methoxymethyl)isoxazole-4-carboxamido)-2-((1r,4S)-4-(trifluoromethyl)cyclohexyl)acetamido)phenyl)-2,4-dimethylpyridine 1-oxide], for which the IC50 was 69 nM in assay [1] (setting [3]) and 178 nM in assay [2] (setting [4]).

As to `CCc1nocc1C(=O)N[C@H](C(=O)Nc1ccc(-c2c(C(F)(F)F)cc[n+]([O-])c2C)cc1)[C@H]1CCCC(F)(F)C1` [Example 26, 3-(4-((S)-2-((S)-3,3-difluorocyclohexyl)-2-(3-ethylisoxazole-4-carboxamido)acetamido)phenyl)-2-methyl-4-(trifluoromethyl)pyridine 1-oxide], the IC50 turned out to be 14 nM in assay [1] (setting [3]) and 44 nM in assay [2] (setting [4]).
